Test results reported in ChEMBL document CHEMBL2150984, “Synthesis of fluorescent ristocetin aglycon derivatives with remarkable antibacterial and antiviral activities” (Eur J Med Chem, 2012).
≈ marks a conversion by molar mass, not a printed value.

How the values were obtained:
[1] = tested on: Bacillus subtilis; assay: Antibacterial activity against Bacillus subtilis ATCC 6633 by broth microdilution method; type: functional
[2] = tested on: Staphylococcus epidermidis; assay: Antibacterial activity against biofilm forming Staphylococcus epidermidis ATCC 35984 by broth microdilution method; type: functional
[3] = tested on: Staphylococcus aureus; assay: Antibacterial activity against methicillin-resistant Staphylococcus aureus ATCC 33591 by broth microdilution method; type: functional
[4] = tested on: Staphylococcus aureus; assay: Antibacterial activity against methicillin-sensitive Staphylococcus aureus ATCC 29213 by broth microdilution method; type: functional
[5] = tested on: Enterococcus faecalis; assay: Antibacterial activity against Enterococcus faecalis ATCC 15376 expressing vanA gene by broth microdilution method; type: functional
[6] = tested on: Enterococcus faecalis; assay: Antibacterial activity against Enterococcus faecalis ATCC 29212 by broth microdilution method; type: functional
[7] = tested on: Staphylococcus epidermidis; assay: Antibacterial activity against Staphylococcus epidermidis expressing mecA gene by broth microdilution method; type: functional
[8] = tested on: Enterococcus faecalis; assay: Antibacterial activity against Enterococcus faecalis ATCC 51299 expressing vanB gene by broth microdilution method; type: functional
[9] = tested on: Influenza A virus; assay: Antiviral activity against Influenza A/PR/8/34 infected in MDCK cells assessed as inhibition of virus-induced cytopathic effect measured on day 3 post infection by MTS assay; type: functional, organism-based; details: A/Puerto Rico/8/1934(H1N1), 72 h
[10] = tested on: H3N2 subtype; assay: Antiviral activity against Influenza A/HK/7/87 infected in MDCK cells assessed as inhibition of virus-induced cytopathic effect measured on day 3 post infection by MTS assay; type: functional, organism-based; details: A/Hong Kong/7/1987(H3N2), 72 h
[11] = tested on: Influenza B virus; assay: Antiviral activity against Influenza B/HK/5/72 infected in MDCK cells assessed as inhibition of virus-induced cytopathic effect measured on day 3 post infection by MTS assay; type: functional, cell-based; details: B/Hong Kong/05/1972, MDCK, 72 h
[12] = Cytotoxicity against MDCK cells assessed as minimum concentration required to cause microscopically detectable alteration measured on day 3 post infection by MTS assay; type: cell-based, Canis lupus familiaris; details: dog

Row | SMILES | MIC [1] [µg/mL] | MIC [2] [µg/mL] | MIC [3] [µg/mL] | MIC [4] [µg/mL] | MIC [5] [µg/mL] | MIC [6] [µg/mL] | MIC [7] [µg/mL] | MIC [8] [µg/mL] | EC50 [9] [nM] | EC50 [10] [nM] | EC50 [11] [nM] | MCC at 3 days [12] [µM]
1 | COC(=O)[C@H]1NC(=O)[C@H]2NC(=O)[C@H](NC(=O)[C@@H]3NC(=O)[C@H]4NC(=O)[C@H](NC(=O)[C@H](n5cc6ccccc6c5Sc5ccccc5)c5ccc(O)c(c5)Oc5cc4cc(O)c5C)[C@H](O)c4ccc(cc4)Oc4cc3cc(c4O)Oc3ccc(cc3)[C@H]2O)c2ccc(O)c(c2)-c2c(O)cc(O)cc21 | 2 (≈ 1.45 µM) | 0.5 (≈ 0.362 µM) | 1 (≈ 0.723 µM) | 1 (≈ 0.723 µM) | 4 (≈ 2.89 µM) | 2 (≈ 1.45 µM) | 1 (≈ 0.723 µM) | 1 (≈ 0.723 µM) | 670 | 680 | 1400 | 6.4
2 | NC(=O)c1ncn([C@@H]2O[C@H](CO)[C@@H](O)[C@H]2O)n1 [RIBAVIRIN] |  |  |  |  |  |  |  |  | 6800 | 8900 |  | ≥ 20
3 | COC(=O)[C@H]1NC(=O)[C@H]2NC(=O)[C@H](NC(=O)[C@@H]3NC(=O)[C@H]4NC(=O)[C@H](NC(=O)[C@H](N)c5ccc(O)c(c5)Oc5cc4cc(O)c5C)[C@H](O)c4ccc(cc4)Oc4cc3cc(c4O)Oc3ccc(cc3)[C@H]2O)c2ccc(O)c(c2)-c2c(O)cc(O)cc21 [AGLYCORISTOCETIN] |  |  |  |  |  |  |  |  | 2300 | 6800 | > 100000 | > 100
4 | Cc1c(O)cc2cc1Oc1cc(ccc1O)[C@@H](N)C(=O)N[C@H]1C(=O)N[C@@H]2C(=O)N[C@H]2C(=O)N[C@H]3C(=O)N[C@H](C(=O)N[C@@H](C(=O)O)c4cc(O)cc(O[C@H]5O[C@H](CO)[C@@H](O)[C@H](O)[C@@H]5O)c4-c4cc3ccc4O)[C@H](O[C@H]3C[C@@H](N)[C@@H](O)[C@H](C)O3)c3ccc(cc3)Oc3cc2cc(c3O[C@H]2O[C@@H](CO[C@H]3O[C@H](C)[C@@H](O)[C@H](O)[C@@H]3O)[C@H](O)[C@@H](O)[C@@H]2O[C@H]2O[C@H](CO)[C@@H](O)[C@H](O)[C@@H]2O[C@H]2O[C@H](CO)[C@@H](O)[C@@H]2O)Oc2ccc(cc2)[C@H]1O [RISTOCETIN] | 16 (≈ 7.79 µM) | 2 (≈ 0.974 µM) | 32 (≈ 15.6 µM) | 128 (≈ 62.3 µM) | 16 (≈ 7.79 µM) | 4 (≈ 1.95 µM) | 128 (≈ 62.3 µM) | 256 (≈ 125 µM) |  |  |  | 
5 | COC(=O)[C@H]1NC(=O)[C@H]2NC(=O)[C@H](NC(=O)[C@@H]3NC(=O)[C@H]4NC(=O)[C@H](NC(=O)[C@H](n5cc6cc7ccccc7cc6c5Sc5ncccn5)c5ccc(O)c(c5)Oc5cc4cc(O)c5C)[C@H](O)c4ccc(cc4)Oc4cc3cc(c4O)Oc3ccc(cc3)[C@H]2O)c2ccc(O)c(c2)-c2c(O)cc(O)cc21 | 2 (≈ 1.39 µM) | 4 (≈ 2.79 µM) | 2 (≈ 1.39 µM) | 2 (≈ 1.39 µM) | 2 (≈ 1.39 µM) | 2 (≈ 1.39 µM) | 2 (≈ 1.39 µM) | 2 (≈ 1.39 µM) | 80 | 360 | > 100000 | ≥ 0.8
6 | CC(=O)N[C@H]1[C@H]([C@H](O)[C@H](O)CO)OC(C(=O)O)=C[C@@H]1NC(=N)N [ZANAMIVIR] |  |  |  |  |  |  |  |  | 300 | 1800 | 34000 | > 100
7 | COC(=O)[C@H]1NC(=O)[C@H]2NC(=O)[C@H](NC(=O)[C@@H]3NC(=O)[C@H]4NC(=O)[C@H](NC(=O)[C@H](n5cc6ccccc6c5S[C@@H]5O[C@H](COC(C)=O)[C@@H](OC(C)=O)[C@H](OC(C)=O)[C@H]5OC(C)=O)c5ccc(O)c(c5)Oc5cc4cc(O)c5C)[C@H](O)c4ccc(cc4)Oc4cc3cc(c4O)Oc3ccc(cc3)[C@H]2O)c2ccc(O)c(c2)-c2c(O)cc(O)cc21 | 8 (≈ 4.89 µM) | 1 (≈ 0.611 µM) | 1 (≈ 0.611 µM) | 2 (≈ 1.22 µM) | 8 (≈ 4.89 µM) | 2 (≈ 1.22 µM) | 4 (≈ 2.44 µM) | 8 (≈ 4.89 µM) | 160 | 72 | > 100000 | ≥ 4
8 | COC(=O)[C@H]1NC(=O)[C@H]2NC(=O)[C@H](NC(=O)[C@@H]3NC(=O)[C@H]4NC(=O)[C@H](NC(=O)[C@H](n5cc6cc7ccccc7cc6c5Sc5ccccc5)c5ccc(O)c(c5)Oc5cc4cc(O)c5C)[C@H](O)c4ccc(cc4)Oc4cc3cc(c4O)Oc3ccc(cc3)[C@H]2O)c2ccc(O)c(c2)-c2c(O)cc(O)cc21 | 0.5 (≈ 0.349 µM) | 1 (≈ 0.698 µM) | 0.5 (≈ 0.349 µM) | 0.5 (≈ 0.349 µM) | 0.5 (≈ 0.349 µM) | 0.5 (≈ 0.349 µM) | 1 (≈ 0.698 µM) | 0.5 (≈ 0.349 µM) | > 100000 | > 100000 | > 100000 | 20
9 | COC(=O)[C@H]1NC(=O)[C@H]2NC(=O)[C@H](NC(=O)[C@@H]3NC(=O)[C@H]4NC(=O)[C@H](NC(=O)[C@H](n5cc6ccccc6c5S[C@@H]5O[C@H](CO)[C@@H](O)[C@H](O)[C@H]5O)c5ccc(O)c(c5)Oc5cc4cc(O)c5C)[C@H](O)c4ccc(cc4)Oc4cc3cc(c4O)Oc3ccc(cc3)[C@H]2O)c2ccc(O)c(c2)-c2c(O)cc(O)cc21 | 2 (≈ 1.36 µM) | 4 (≈ 2.72 µM) | 1 (≈ 0.681 µM) | 1 (≈ 0.681 µM) | 1 (≈ 0.681 µM) | 1 (≈ 0.681 µM) | 1 (≈ 0.681 µM) | 2 (≈ 1.36 µM) | 270 | 2300 | > 100000 | 20
10 | COC(=O)[C@H]1NC(=O)[C@H]2NC(=O)[C@H](NC(=O)[C@@H]3NC(=O)[C@H]4NC(=O)[C@H](NC(=O)[C@H](n5cc6ccccc6c5S[C@@H]5O[C@H](COC(C)=O)[C@@H](OC(C)=O)[C@H](OC(C)=O)[C@H]5NC(C)=O)c5ccc(O)c(c5)Oc5cc4cc(O)c5C)[C@H](O)c4ccc(cc4)Oc4cc3cc(c4O)Oc3ccc(cc3)[C@H]2O)c2ccc(O)c(c2)-c2c(O)cc(O)cc21 | 8 (≈ 4.89 µM) | 4 (≈ 2.45 µM) | 4 (≈ 2.45 µM) | 4 (≈ 2.45 µM) | 4 (≈ 2.45 µM) | 4 (≈ 2.45 µM) | 4 (≈ 2.45 µM) | 4 (≈ 2.45 µM) | 1800 | 1800 | > 100000 | 20
11 | CN[C@H](CC(C)C)C(=O)N[C@H]1C(=O)N[C@@H](CC(N)=O)C(=O)N[C@H]2C(=O)N[C@H]3C(=O)N[C@H](C(=O)N[C@H](C(=O)O)c4cc(O)cc(O)c4-c4cc3ccc4O)[C@H](O)c3ccc(c(Cl)c3)Oc3cc2cc(c3O[C@@H]2O[C@H](CO)[C@@H](O)[C@H](O)[C@H]2O[C@H]2C[C@](C)(N)[C@H](O)[C@H](C)O2)Oc2ccc(cc2Cl)[C@H]1O [VANCOMYCIN] | 0.5 (≈ 0.345 µM) |  |  |  | 256 (≈ 177 µM) | 1 (≈ 0.69 µM) |  | 128 (≈ 88.3 µM) |  |  |  | 
12 | NC12CC3CC(CC(C3)C1)C2 [AMANTADINE] |  |  |  |  |  |  |  |  | 7600 | 2300 | > 500000 | > 500
13 | COC(=O)[C@H]1NC(=O)[C@H]2NC(=O)[C@H](NC(=O)[C@@H]3NC(=O)[C@H]4NC(=O)[C@H](NC(=O)[C@H](n5cc6ccccc6c5Sc5ncccn5)c5ccc(O)c(c5)Oc5cc4cc(O)c5C)[C@H](O)c4ccc(cc4)Oc4cc3cc(c4O)Oc3ccc(cc3)[C@H]2O)c2ccc(O)c(c2)-c2c(O)cc(O)cc21 | 0.5 (≈ 0.361 µM) | 2 (≈ 1.44 µM) | 1 (≈ 0.722 µM) | 1 (≈ 0.722 µM) | 0.5 (≈ 0.361 µM) | 0.5 (≈ 0.361 µM) | 0.5 (≈ 0.361 µM) | 0.5 (≈ 0.361 µM) | 300 | 1800 | > 100000 | 20
